This note sets out measurements from PubChem BioAssay (NCI).

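Briefly, cells in 96-well plates were exposed to five compound concentrations for 48 h, and endpoints were estimated by linear interpolation. GI50 = concentration required for 50% inhibition of growth. TGI is the concentration that stops growth completely.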 Bounds are passed on as bounds.

Some test systems named below: NCI-H23 lung; SF-539 CNS; MDA-MB-231 breast; SK-MEL-5 melanoma; SK-OV-3 ovarian; HT29 colon; HCT-15 colon; RXF 393 renal; EKVX NSCLC; HOP-92 NSCLC.
Common to all, as to experiment: growth of human tumour cells (NCI), 48 h

Consider `COC(=O)c1nc(-c2ccccc2)oc1S(=O)(=O)n1nc(C)cc1N`, for which the GI50 was 16.7 µM with NCI-H23 lung; 14.4 µM in the test with SF-539 CNS; 9.03 µM in the test on MDA-MB-231 breast; 15.5 µM in the test with SK-MEL-5 melanoma; 45.5 µM with SK-OV-3 ovarian; 16.4 µM with HT29 colon. Moreover, the GI50 in the test on HCT-15 colon is 4.51 µM; in the test with RXF 393 renal, 11.9 µM; in the test on EKVX NSCLC it was 16.7 µM; with HOP-92 NSCLC, 1.73 µM. Besides, the TGI was 35.9 µM in the test with NCI-H23 lung; 27.7 µM with SF-539 CNS; 21.8 µM in the test with MDA-MB-231 breast; 29.7 µM with SK-MEL-5 melanoma; > 100 µM with SK-OV-3 ovarian; 36.5 µM in the test with HT29 colon. Further, the TGI with HCT-15 colon was found to be 17.8 µM; in the test with RXF 393 renal, 24.7 µM; in the test with EKVX NSCLC, 43.9 µM; in the test with HOP-92 NSCLC, 3.89 µM.
For `Cc1ccc(C2=Nc3ccccc3SC(c3cccc([N+](=O)[O-])c3)C2)cc1` (stereo not given), the TGI is > 100 µM in the test on NCI-H23 lung; 19 µM in the test with SF-539 CNS; > 100 µM in the test with MDA-MB-231 breast; > 100 µM in the test with SK-MEL-5 melanoma; > 100 µM with SK-OV-3 ovarian; > 100 µM in the test with HT29 colon. In addition, the TGI with HCT-15 colon was > 100 µM; in the test with RXF 393 renal, 72.2 µM; in the test on EKVX NSCLC, > 100 µM; in the test on HOP-92 NSCLC, 81.3 µM.
In the case of `CC(C)(C)c1ccc(C(=O)Nc2sc3c(c2C(N)=O)CCC(=O)C3)cc1`, the GI50 was 0.423 µM in the test on NCI-H23 lung; 0.438 µM in the test on SF-539 CNS; 0.999 µM in the test with MDA-MB-231 breast; 1.53 µM in the test on SK-MEL-5 melanoma; 2.81 µM with SK-OV-3 ovarian; 0.489 µM with HT29 colon. In addition, the GI50 was 0.408 µM with HCT-15 colon, 0.426 µM in the test on RXF 393 renal, 1.97 µM with EKVX NSCLC and 1.13 µM in the test on HOP-92 NSCLC. Besides, the TGI is 1.86 µM in the test on NCI-H23 lung; 1.61 µM in the test on SF-539 CNS; 2.63 µM in the test with MDA-MB-231 breast; 2.96 µM in the test on SK-MEL-5 melanoma; 8.75 µM with SK-OV-3 ovarian; 3.5 µM in the test with HT29 colon. Also, the TGI in the test on HCT-15 colon stood at 2.38 µM; in the test with RXF 393 renal, 1.94 µM; with EKVX NSCLC, 4.82 µM; with HOP-92 NSCLC, 2.96 µM.
Regarding `CCN(CCO)CC(C)Nc1ccc([N+](=O)[O-])c2sc3ccccc3c(=O)c12` (stereo not given), the GI50 with NCI-H23 lung was 1.78 µM; in the test on SF-539 CNS, 3.6 µM; in the test on MDA-MB-231 breast, 2.6 µM; in the test with SK-MEL-5 melanoma, 1.52 µM; in the test with SK-OV-3 ovarian it was 2.53 µM; in the test with HT29 colon it was 1.42 µM. Also, the GI50 was 1.76 µM in the test on HCT-15 colon, 1.89 µM in the test with RXF 393 renal, 1.67 µM with EKVX NSCLC and 1.6 µM with HOP-92 NSCLC. For the same compound, the TGI amounted to 6.4 µM in the test with NCI-H23 lung; 19.2 µM with SF-539 CNS; 12.3 µM in the test on MDA-MB-231 breast; 5.56 µM in the test on SK-MEL-5 melanoma; 14 µM with SK-OV-3 ovarian; 3.62 µM in the test with HT29 colon. Moreover, the TGI was > 100 µM with HCT-15 colon, 8 µM in the test on RXF 393 renal, 6.28 µM in the test with EKVX NSCLC and 7.7 µM in the test on HOP-92 NSCLC.
With `COc1ccc(C(=O)N2c3ccccc3Sc3ccccc32)c(OC)c1`, the GI50 is 0.776 µM in the test with NCI-H23 lung; 0.333 µM with SF-539 CNS; 0.83 µM in the test with MDA-MB-231 breast; 0.408 µM with SK-MEL-5 melanoma; 0.715 µM with SK-OV-3 ovarian; 0.385 µM with HT29 colon. Besides, the GI50 was 0.464 µM in the test with HCT-15 colon, 0.413 µM with RXF 393 renal, 0.851 µM with EKVX NSCLC and 0.374 µM in the test with HOP-92 NSCLC. Besides, the TGI in the test on NCI-H23 lung is > 100 µM; in the test on SF-539 CNS it was 4.37 µM; in the test on MDA-MB-231 breast, > 100 µM; in the test on SK-MEL-5 melanoma, > 100 µM; with SK-OV-3 ovarian, > 100 µM; in the test on HT29 colon, > 100 µM. The TGI was > 100 µM with HCT-15 colon, > 100 µM in the test on RXF 393 renal, > 100 µM with EKVX NSCLC and 97.2 µM in the test with HOP-92 NSCLC.
On to `Cc1ccc(NC(=O)c2ccccc2C(=O)O)cc1C`, for which the TGI in the test on NCI-H23 lung, with SF-539 CNS, in the test with MDA-MB-231 breast, in the test with SK-MEL-5 melanoma, in the test on SK-OV-3 ovarian and with HT29 colon was > 100 µM throughout. In addition, the TGI with HCT-15 colon, with RXF 393 renal, with EKVX NSCLC and in the test with HOP-92 NSCLC was > 100 µM in each case.
Regarding `Cc1cc(N(CCC#N)CCC#N)ccc1/C=C1N=C(/C=C\c2ccccc2)N(c2ccc(Cl)cc2)C\1=O`, the TGI was > 100 µM in the test with NCI-H23 lung; > 100 µM in the test with SF-539 CNS; > 100 µM in the test with MDA-MB-231 breast; 17.5 µM in the test with SK-MEL-5 melanoma; > 100 µM in the test with SK-OV-3 ovarian; > 100 µM in the test on HT29 colon. The TGI in the test with HCT-15 colon, in the test on RXF 393 renal, with EKVX NSCLC and with HOP-92 NSCLC was > 100 µM throughout.
For the compound `N#CN1CC[C@H](C(=O)Nc2ncc(-c3ccncc3)s2)C1`, the GI50 with NCI-H23 lung was 0.0269 µM; in the test on SF-539 CNS, < 0.016 µM; in the test on MDA-MB-231 breast, < 0.0266 µM; with SK-MEL-5 melanoma, 0.0925 µM; with SK-OV-3 ovarian, 1.15 µM; in the test with HT29 colon, < 0.0197 µM. Moreover, the GI50 with HCT-15 colon is < 0.021 µM; in the test with RXF 393 renal, 0.0238 µM; in the test on EKVX NSCLC, 0.0642 µM; with HOP-92 NSCLC, 0.0802 µM. In addition, the TGI with NCI-H23 lung was 3.44 µM; in the test on SF-539 CNS, 0.164 µM; in the test with MDA-MB-231 breast, > 50.2 µM; in the test on SK-MEL-5 melanoma, 5.58 µM; with SK-OV-3 ovarian, > 30.9 µM; in the test on HT29 colon, 1.96 µM. In addition, the TGI is > 100 µM in the test with HCT-15 colon, 0.242 µM with RXF 393 renal, 4.4 µM in the test on EKVX NSCLC and 0.761 µM in the test on HOP-92 NSCLC.
`CCN1C(=O)N(CC)C2C1NN=c1s/c(=C\c3ccccc3Br)c(=O)n12` (stereo not given): the GI50 with NCI-H23 lung was 0.0552 µM; with SF-539 CNS it was 0.0242 µM; in the test on MDA-MB-231 breast, 0.0347 µM; in the test on SK-MEL-5 melanoma it was 0.0319 µM; in the test with SK-OV-3 ovarian, 0.0667 µM; in the test with HT29 colon, 0.0348 µM. The GI50 in the test with HCT-15 colon is 0.0303 µM; in the test on RXF 393 renal, 0.0389 µM; with EKVX NSCLC, 0.317 µM; in the test with HOP-92 NSCLC, 0.37 µM. Also, the TGI in the test with NCI-H23 lung was 29.6 µM; in the test with SF-539 CNS, 0.382 µM; with MDA-MB-231 breast, 11.4 µM; with SK-MEL-5 melanoma, 0.133 µM; in the test with SK-OV-3 ovarian it was > 100 µM; with HT29 colon, 14 µM. The TGI is 12.6 µM in the test on HCT-15 colon, 17.4 µM in the test with RXF 393 renal, > 70.7 µM in the test with EKVX NSCLC and 44.7 µM in the test with HOP-92 NSCLC.
